Experimental findings from publication PMC4457358, “Structure–activity studies in the development of a hydrazone based inhibitor of adipose-triglyceride lipase (ATGL)” (Bioorganic & Medicinal Chemistry, 2015) are described below.

One data set has as its target T1, murine ATGL (Mus musculus, UniProt Q8BJ56).
T1 construct: expressed in transfected cells; host or cells: COS-7 (ATCC CRL-1651), transient transfection with Metafectene; crude lysate after 1000 x g spin
T1 sequence (Q8BJ56 1-486): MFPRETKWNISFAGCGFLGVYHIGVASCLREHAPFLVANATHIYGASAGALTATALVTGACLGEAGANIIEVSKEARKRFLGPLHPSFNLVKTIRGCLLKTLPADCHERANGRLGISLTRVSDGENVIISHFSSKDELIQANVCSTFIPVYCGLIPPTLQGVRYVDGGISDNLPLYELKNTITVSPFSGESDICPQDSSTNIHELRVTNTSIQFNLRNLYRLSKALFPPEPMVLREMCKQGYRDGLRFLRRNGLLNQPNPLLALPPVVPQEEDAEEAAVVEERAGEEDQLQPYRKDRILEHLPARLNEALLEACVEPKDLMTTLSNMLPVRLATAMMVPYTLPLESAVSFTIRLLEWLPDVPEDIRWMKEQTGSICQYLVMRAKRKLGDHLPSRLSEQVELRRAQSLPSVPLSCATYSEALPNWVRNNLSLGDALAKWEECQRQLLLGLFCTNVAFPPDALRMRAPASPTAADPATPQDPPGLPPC
Briefly: Triglyceride hydrolase activity assay with COS7-cell lysate overexpressing recombinant murine ATGL, radiolabelled triolein substrate.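 For all read-outs here: radioactivity from the triolein substrate quantified by liquid scintillation counting after phase separation, reflecting triglyceride hydrolase activity of murine ATGL in lysates of transfected COS-7 cells.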 Conditions: for inhibition at 200 µM: 1 h, read-out: I200 (%); for biological activity against ATGL (in words) / IC50: COS7-cell lysate overexpressing murine ATGL. The class given is biochemical.

The mark [1] stands for this setting: ATGL-inhibition efficiency at 200 μM inhibitor.

The melting point is the temperature, or range, at which the solid turns liquid. What is called IC50 is the concentration at which inhibition is half-maximal.

Where two headings read alike, the source gives them in different places.

Description for murine ATGL: All synthesized test compounds were screened for their efficiency to inhibit ATGL activity in vitro in an assay using radiolabelled triolein as substrate.[20] As ATGL cannot be purified, the assays were performed with COS7-cell lysates from cells overexpressing recombinant murine ATGL. For the determination of the IC50-value inhibitors were administered with increasing concentrations to the enzyme and its substrate. To determine the ATGL-inhibition efficiency at 200 μM (I200), 200 μM inhibitor was administered to the enzyme and its substrate.
For the determination of TG hydrolase activity cell lysates of COS-7 cells overexpressing recombinant murine ATGL were used. Therefore, monkey embryonic kidney cells (Cos-7; ATCC CRL-1651) were cultivated in Dulbeccos modified eagles medium (DMEM, GIBCO, Invitrogen Corp., Carlsbad, CA), containing 10% fetal calf serum (FCS, Sigma–Aldrich) and antibiotics (100 IU/mL penicillin and 100 μg/mL streptomycin) at standard conditions (37 °C, 5% CO2, 95% humidified atmosphere). Cells were transfected with 1 μg DNA complexed to Metafectene (Biontex GmbH, Munich, Germany) in serum free DMEM. After 4 h the medium was replaced by DMEM supplemented with 10% FCS. For the preparation of cell lysates, cells were washed with 1× phosphate buffered saline, collected using a cell scraper, and disrupted in buffer A (0.25 M sucrose, 1 mM EDTA, 1 mM dithiothreitol, 20 μg/mL leupeptine, 2 μg/mL antipain, 1 μg/mL pepstatin, pH 7.0) by sonication (Virsonic 475, Virtis, Gardiner, NJ). Nuclei and unbroken cells were removed by centrifugation (1000×g, 4 °C, for 10 min). Protein concentration of the cell lysates were determined by Bio-Rad protein assay according to the manufacturer’s protocol (Bio-Rad 785, Bio-Rad Laboratories, Munich, Germany), using BSA as standard.
The triolein (TO) substrate was prepared as described. […] In brief, 330 μM triolein (40,000 cpm/nmol) (GE Healthcare) was emulsified with 45 μM phosphatidylcholine/phosphatidylinositol (3:1) (Sigma) in 100 mM potassium phosphate buffer (pH 7.0) by sonication (Virsonic 475, Virtis) and was adjusted to 5% (w/v) fatty acid free bovine serum albumin (BSA, Sigma). 100 μL (20 μg protein) cell lysate or 2 μl purified recombinant LPL (Sigma–Aldrich) were incubated with 100 μL TO substrate in the presence or in the absence of inhibitors in a water bath for 1 h at 37 °C. After incubation, the reaction was terminated by adding 3.25 mL of methanol/chloroform/heptane (10:9:7) and 1 mL of 0.1 M potassium carbonate, 0.1 M boric acid (pH 10.5). After centrifugation (800 g, 15 min), the radioactivity in 1 mL of the upper phase was determined by liquid scintillation counting.

`COc1cc(OC)c(OC)cc1/C=N/N1CCN(c2ccccc2)CC1` [Compound 1k, (E)-4-Phenyl-N-(2,4,5-trimethoxybenzyliden)piperazin-1-amine] yielded a melting point of 153 to 156 °C. Also, the inhibition at 200 µM on murine ATGL (setting [1]) was 43%.
For `COc1ccc(/C=N/N2CCN(c3ccccc3)CC2)cc1OC` [Compound 1b, (E)-N-(3,4-Dimethoxybenzylidene)-4-phenylpiperazin-1-amine] the same measures were 153 to 154 °C and 65%.
Compound `Oc1ccc(CN2CCN(c3ccccc3)CC2)cc1O` [Compound 8, 4-((4-Phenylpiperazin-1-yl)methyl)benzene-1,2-diol] yielded a melting point of 100 to 102 °C. Also, at murine ATGL, the inhibition at 200 µM is 20% and the “biological activity against ATGL (in words)” value (from here on “biological activity”) was “biologically inactive”.
Turning to `Oc1ccc(/C=N/N2CCN(CCc3ccccc3)CC2)c(O)c1` [Compound 3e, (E)-4-((4-Phenethylpiperazin-1-ylimino)methyl)benzene-1,3-diol], the melting point lay within 211 to 214 °C. Also, the inhibition at 200 µM on murine ATGL (setting [1]) was determined as 14%.
Take `C1=C(/C=N/N2CCN(c3ccccc3)CC2)CCCC1` [Compound 2d, (E)-N-(Cyclohexenylmethylen)-4-phenylpiperazin-1-amine]: the melting point is 118 to 120 °C. The inhibition at 200 µM on murine ATGL (setting [1]) was 58%. The “biological activity” value on murine ATGL is reported as “moderate activity”.
Turning to `Oc1ccc(/C=N/N2CCN(c3ccccc3)CC2)cc1` [Compound 1g, (E)-4-((4-Phenylpiperazin-1-ylimino)methyl)phenol], the melting point was 192 °C (dec.). Also, at murine ATGL (setting [1]), the inhibition at 200 µM was 85%.
`C(=N\N1CCN(c2ccccc2)CC1)/c1ccc2c(c1)OCCO2` [Compound 1y, (E)-N-((2,3-Dihydrobenzol[b][1,4]dioxin-6-yl)methylen)-4-phenylpiperazin-1-amine] registered a melting point of 186 to 187 °C. Besides, the inhibition at 200 µM at murine ATGL (setting [1]) is 27%.
For `C(=N\N1CCN(c2ccccc2)CC1)/c1cccc2ccccc12` [Compound 2j, (E)-N-(Naphthalene-1-methylen)-4-phenylpiperazin-1-amine] the same measures were 118 °C and 49%.
`Oc1ccc(/C=N/N2CCN(c3ccc(F)cc3)CC2)c(O)c1` [Compound 3b, (E)-4-((4-(4-Fluorophenyl)piperazin-1-ylimino)methyl)benzene-1,3-diol] gave a melting point of 176 to 178 °C. In addition, at murine ATGL (setting [1]), the inhibition at 200 µM is 78%. For the same compound, the IC50 on murine ATGL is 50 µM.
Turning to `Oc1ccc(/C=N/N2CCN(C3CCCC3)CC2)c(O)c1` [Compound 3g, (E)-4-((4-Cyclopentylpiperazin-1-ylimino)methyl)benzene-1,3-diol], the melting point was 237 to 239 °C (dec.). Further, on murine ATGL (setting [1]), the inhibition at 200 µM was found to be 36%.
For `Clc1ccc(/C=N/N2CCN(c3ccccc3)CC2)c(Cl)c1` [Compound 1o, (E)-N-(2,4-Dichlorobenzylidene)-4-phenylpiperazin-1-amine] the same measures were 113 to 115 °C and 42%.
For `Brc1ccccc1/C=N/N1CCN(c2ccccc2)CC1` [Compound 1q, (E)-N-(2-Bromobenzylidene)-4-phenylpiperazin-1-amine] the same measures were 88 to 90 °C and 73%.
For `COc1ccc(/C=N/N2CCN(c3ccccc3)CC2)cc1O` [Compound 1c, (E)-2-Methoxy-5-((4-phenylpiperazin-1-ylimino)methyl)phenol] the same measures were 180 °C (dec.) and 56%.
`C(=N\N1CCN(c2ccccc2)CC1)/c1ccc2ccccc2n1` [Compound 2i, (E)-4-Phenyl-N-(quinoline-2-ylmethylen)-piperazin-1-amine]: the melting point is 210 to 212 °C. In addition, the inhibition at 200 µM at murine ATGL (setting [1]) stood at 8%.
The like results for `C(=N\N1CCN(c2ccccc2)CC1)/C1CCCCC1` [Compound 2c, (E)-N-(Cyclohexylmethylen)-4-phenylpiperazin-1-amine] were, in that order, 69 to 71 °C and 49%.
Compound `C(=N\N1CCN(c2ccccc2)CC1)/c1ccncc1` [Compound 2g, (E)-4-Phenyl-N-(pyridine-4-ylmethylen)piperazin-1-amine] came in with a melting point of 156 to 158 °C. In addition, the inhibition at 200 µM at murine ATGL (setting [1]) is 60%. In addition, the “biological activity” value on murine ATGL was “moderate activity”.
Take `COc1ccc(NC(=O)N2CCN(c3ccccc3)CC2)cc1OC` [Compound 12, N-(3,4-Dimethoxyphenyl)-4-phenylpiperazin-1-carboxamide]: the melting point was 122 to 125 °C. Further, at murine ATGL (setting [1]), the inhibition at 200 µM was found to be 40%. In addition, the “biological activity” value at murine ATGL is on record as “no biological activity”.
Compound `Clc1ccc(/C=N/N2CCN(c3ccccc3)CC2)cc1Cl` [Compound 1n, (E)-N-(3,4-Dichlorobenzylidene)-4-phenylpiperazin-1-amine] registered a melting point of 176 to 178 °C. In addition, on murine ATGL (setting [1]), the inhibition at 200 µM was 20%. At murine ATGL, the “biological activity” value is “inactive”.
As for `Oc1cccc(/C=N/N2CCN(c3ccccc3)CC2)c1` [Compound 1e, (E)-3-((4-Phenylpiperazin-1-ylimino)methyl)phenol], the melting point is 190 °C (dec.). Besides, the inhibition at 200 µM on murine ATGL (setting [1]) was found to be 71%.
The like results for `O=c1[nH]c2ccc(/C=N/N3CCN(c4ccccc4)CC3)cc2[nH]1` [Compound 1z, (E)-5-((4-Phenylpiperazin-1-ylimino)methyl)-1H-benzo[d]imidazol-2(3H)-one] were, in that order, 320 to 330 °C (dec.) and 16%.
The like results for `C(=N\N1CCN(c2ccccc2)CC1)/c1ccccn1` [Compound 2e, (E)-4-Phenyl-N-(pyridine-2-ylmethylen)piperazin-1-amine] were, in that order, 117 to 119 °C and 16%.
For `Oc1ccc(/C=N/N2CCN(C3CCCCC3)CC2)c(O)c1` [Compound 3f, (E)-4-((4-Cyclohexylpiperazin-1-ylimino)methyl)benzene-1,3-diol] the same measures were 247 to 249 °C (dec.) and 25%.
As to `C(=N\N1CCN(c2ccccc2)CC1)/c1ccc2ccccc2c1` [Compound 2h, (E)-N-(Naphthalene-2-ylmethylen)-4-phenylpiperazin-1-amine], the melting point was 195 to 198 °C (dec.). For the same compound, the inhibition at 200 µM at murine ATGL (setting [1]) was less than 1%.
For `Oc1ccc(/C=N/N2CCN(c3ccncc3)CC2)c(O)c1` [Compound 3a, (E)-4-((4-(Pyridine-4-yl)piperazin-1-ylimino)methyl)benzene-1,3-diol] the same measures were 270 to 273 °C (dec.) and 19%.
For the compound `Oc1ccc(/C=N/N2CCC(c3ccccc3)CC2)c(O)c1` [Compound 3h, (E)-4-((4-Phenylpiperidine-1-ylimino)methyl)benzene-1,3-diol], the melting point fell in the range of 139 to 142 °C. Also, the inhibition at 200 µM at murine ATGL (setting [1]) turned out to be 81%. Further, the IC50 on murine ATGL stood at 40 µM.
Compound `CCC/C=C/C=N/N1CCN(c2ccccc2)CC1` [Compound 2b, (E)-N-((E)-Hex-2-enyliden)-4-phenylpiperazin-1-amine] gave a melting point of 48 °C. Besides, the inhibition at 200 µM at murine ATGL (setting [1]) came out at 12%.
For `C(=N\N1CCN(c2ccccc2)CC1)/c1cccnc1` [Compound 2f, (E)-4-Phenyl-N-(pyridine-3-ylmethylen)piperazin-1-amine] the same measures were 111 to 113 °C and 46%.
Compound `C(=N\N1CCN(c2ccccc2)CC1)/c1ccc2c(c1)OCO2` [Compound 1x, (E)-N-(Benzo[d][1,3]dioxol-5-ylmethylen)-4-phenylpiperazin-1-amine] gave a melting point of 125 to 129 °C. Further, the inhibition at 200 µM at murine ATGL (setting [1]) was determined as 64%.
For `Oc1ccccc1/C=N/N1CCN(c2ccccc2)CC1` [Compound 1f, (E)-2-((4-Phenylpiperazin-1-ylimino)methyl)phenol] the same measures were 138 to 142 °C and 64%.
`COc1cc(/C=N/N2CCN(c3ccccc3)CC2)cc(OC)c1OC` [Compound 1l, (E)-4-Phenyl-N-(3,4,5-trimethoxybenzylidene)piperazin-1-amine] yielded a melting point of 93 to 98 °C. The inhibition at 200 µM on murine ATGL (setting [1]) was 41%.
The like results for `O=[N+]([O-])c1ccccc1/C=N/N1CCN(c2ccccc2)CC1` [Compound 1p, (E)-N-(2-Nitrobenzylidene)-4-phenylpiperazin-1-amine] were, in that order, 103 to 106 °C and 60%.
